The values that follow come from publication PMC5974779, “Prediction of Drug-Induced Hepatotoxicity Using Long-Term Stable Primary Hepatic 3D Spheroid Cultures in Chemically Defined Conditions” (Toxicological Sciences, 2018).

As a reminder, the Cmax is the peak of the concentration-time curve.

Like-named read-outs stand apart in the source and are kept apart here.

For series [1] the following is noted: ref DrugBank and Prescribers' Digital Reference database; cited from earlier work.
Series [2] has as its system primary human hepatocytes (PHH) 3D spheroids.
For series [3] the following is noted: therapeutic total cmax; ref PMID; cited from earlier work.
For series [4], the system named is PHH 2D sandwich cultures. As to conditions: PHH 2D sandwich cultures, 100x Cmax; ref Xu 2008; cited from earlier work.
Series [5] concerns clinical DILI in man. As to conditions: cited from earlier work.
Where [6] appears, read: FDA drug labeling DILI score, ref Chen et al., 2011.
Setting [7] is: clinical DILI classification in man (POS/NEG).
Setting [8] is: clinical DILI classification used in this study, Supplementary Table 2, ref Chen et al., 2011, Guo et al., 2005, O'Brien et al., 2006, Sakatis et al., 2012, Suzuki et al., 2010, Xu et al., 2008.
The mark [9] stands for this setting: clinical DILI classification, Supplementary Table 1, ref Chen et al., 2011, Guo et al., 2005, O'Brien et al., 2006, Sakatis et al., 2012, Suzuki et al., 2010, Xu et al., 2008.
Setting [10] is: clinical DILI classification, ref Xu et al. (2008).
Where [11] appears, read: reported pattern of liver damage, Supplementary Table 2, ref literature.

Turning to `O=C(OCC(O)CO)c1ccccc1Nc1ccnc2cc(Cl)ccc12` (stereo not shown) [Glafenine], the “Extent of hepatic metabolism” value in series [1] is “Extensive”. The “Chemically defined spheroids (this study) 20x” value (“Chemically defined spheroids” for short) in series [2] is on record as “Negative”. Further, the Cmax in series [3] is 1.88 µM. In series [4], the “2Dsw (Xu 2008) 100x” value was “Negative”. Further, in series [5] (in vivo), the Classified as result was “POS”, the “Clinical DILI class (panel heading of Figure 4)” value (“Clinical DILI class” for short) is “Severe DILI”, the DILI in vivo result was “POS” and the “FDA (0-8)” value is “Withdrawn”. For the same molecule, in series [5] (in vivo), the “FDA (Severity)” value is given as “most DILI concern”, the “Sakatis et al. (2012)” value was “Hepatotoxic”, the “Type of DILI” value is “Hepatocellular injury” and the “Xu et al. (2008)” value is on record as “Positive”.
As to `O=C1NC(=O)C(c2ccccc2)(c2ccccc2)N1` [Phenytoin], the “Extent of hepatic metabolism” value in series [1] was “Extensive”. The “Chemically defined spheroids” value in series [2] is listed as “Negative”. Moreover, in series [3], the Cmax is 21.7 µM. Further, in series [4], the “2Dsw (Xu 2008) 100x” value is reported as “Positive”. In addition, in series [5] (in vivo), the Classified as result is given as “POS”, the “Clinical DILI class” value was “Severe DILI”, the DILI in vivo result is recorded as “POS” and the “FDA (0-8)” value was 8. In series [5] (in vivo), the “FDA (Severity)” value was “less DILI concern”, the “Guo et al. (2005)” value is reported as 2, the “Sakatis et al. (2012)” value is “Hepatotoxic” and the “Suzuki et al. (2010)” value was 2. For the same molecule, in series [5] (in vivo), the “Type of DILI” value is on record as “Hepatocellular injury or Mixed hepatitis” and the “Xu et al. (2008)” value is listed as “Positive”.
For the molecule `CCOC(=O)[C@H](CCc1ccccc1)N[C@@H](C)C(=O)N1Cc2ccccc2C[C@H]1C(=O)O` [Quinapril], the “Extent of hepatic metabolism” value in series [1] is reported as “Moderate”. Moreover, the “Chemically defined spheroids” value in series [2] is listed as “Negative”. Also, the Cmax in series [3] is 1.2 µM. Further, the “2Dsw (Xu 2008) 100x” value in series [4] is listed as “Negative”. Moreover, in series [5] (DILI classification score, ref Guo et al. (2005)), the “Guo et al. (2005)” value was 3. Moreover, the “Suzuki et al. (2010)” value in series [5] (DILI classification score, ref Suzuki et al. (2010)) was 1. In addition, the “FDA (0-8)” value in series [5] (setting [6]) is 3. Moreover, the DILI in vivo result in series [5] (setting [7]) and in series [5] (setting [9]) was “POS” throughout. In addition, the Classified as result in series [5] (setting [8]) was “POS”. The “Xu et al. (2008)” value in series [5] (setting [10]) was “Positive”. Besides, in series [5] (setting [11]), the “Type of DILI” value was “Cholestatic injury”.
As to `CC[C@@H]1C(=O)OC[C@@H]1Cc1cncn1C` [Pilocarpine], the “Extent of hepatic metabolism” value in series [1] is listed as “Minimal”. For the same molecule, in series [2], the “Chemically defined spheroids” value is listed as “Negative”. Moreover, the Cmax in series [3] is 0.084 µM. Further, the “2Dsw (Xu 2008) 100x” value in series [4] is “Negative”. Further, the “FDA (0-8)” value in series [5] (setting [6]) was 3. Besides, the DILI in vivo entry in series [5] (setting [7]) and in series [5] (setting [9]) was “NEG” in each case. Also, the Classified as result in series [5] (setting [8]) is “NEG”. In addition, the “Xu et al. (2008)” value in series [5] (setting [10]) is given as “Negative”. Also, the “Type of DILI” value in series [5] (setting [11]) is “Non-hepatotoxic”.
For `CC(C)(Oc1ccc(CCNC(=O)c2ccc(Cl)cc2)cc1)C(=O)O` [Bezafibrate], the “Extent of hepatic metabolism” value in series [1] is “Extensive”. Also, the “Chemically defined spheroids” value in series [2] was “Negative”. For the same molecule, the peak concentration (Cmax) in series [3] is 16.6 µM. Further, the “2Dsw (Xu 2008) 100x” value in series [4] was “Negative”. Moreover, in series [5] (in vivo), the Classified as entry is reported as “NEG”, the “Clinical DILI class” value is “DILI negative”, the DILI in vivo result is recorded as “NEG” and the “Type of DILI” value was “Non-hepatotoxic”.
`COC(=O)C1=C(C)NC(C)=C(C(=O)OCC(C)C)C1c1ccccc1[N+](=O)[O-]` (stereo not shown) [Nisoldipine]: the “Extent of hepatic metabolism” value in series [1] is on record as “Extensive”. Further, in series [2], the “Chemically defined spheroids” value is recorded as “Negative”. Besides, in series [3], the Cmax is 0.013 µM. The “2Dsw (Xu 2008) 100x” value in series [4] is on record as “Negative”.
Regarding `CC(C)(C)c1ccc(C(O)CCCN2CCC(C(O)(c3ccccc3)c3ccccc3)CC2)cc1` (stereo not shown) [Terfenadine], in series [1], the “Extent of hepatic metabolism” value is given as “Extensive”. In series [3], the Cmax is 0.0045 µM. The “2Dsw (Xu 2008) 100x” value in series [4] is reported as “Negative”. Also, in series [5] (in vivo), the Classified as result is listed as “NEG”, the “Clinical DILI class” value is given as “DILI negative”, the DILI in vivo result is given as “NEG” and the “Type of DILI” value is listed as “Non-hepatotoxic”.
